Values of other authors, collected in PubChem BioAssay AID1259409 (Chemical Carcinogenesis Research Information System (CCRIS), 2018).

Test system: rodent chemically induced tumor inhibition, incidence and multiplicity
Experiment: CCRIS tumor inhibitor studies
Conditions: Dose [Inhibitor]: 0

CC(C)=CCC/C(C)=C/C=C/C(C)=C/C=C/C(C)=C/C=C/C=C(C)/C=C/C=C(C)/C=C/C=C(\C)CCC=C(C)C
tumour outcome (control, treated, inhibition, significance) (Carcinogen: 7,12-DIMETHYLBENZ[A]ANTHRACENE, 57-97-6, 2.5 MG/KG ON DAYS ALTERNATE TO CARCINOGEN APPLICATION FOR STUDY DURATION (STUDY DURATION: 14 WK), Route [Inhibitor]: GAVAGE, Species: HAMSTER, Strain/Sex: SYRIAN/MALE, Target Tissue: Type of Lesion: BUCCAL POUCH: SQUAMOUS CELL CARCINOMA, Dose [Carcinogen]: 0.5% IN LIQUID PARAFFIN ON RIGHT BUCCAL POUCH 3X/WK FOR 14 WK, Promoter: NONE USED): 6/6 (100%), 0/6 (0%), 100%, not calculated
tumour outcome (control, treated, inhibition, significance) (Carcinogen: DIETHYLNITROSAMINE: 55-18-5, N-METHYL-N-NITROSOUREA, 684-93-5, 1,2-DIMETHYLHYDRAZINE, 540-73-8, Carcinogen: DIETHYLNITROSAMINE: 55-18-5, N-METHYL-N-NITROSOUREA, 684-93-5, 1,2-DIMETHYLHYDRAZINE, 540-73-8, 25 PPM IN DIET FOR 21 WK BEGINNING 2 WK POST CARCINOGEN TREATMENT (STUDY DURATION: 213 D), Route [Inhibitor]: ORAL, Species: MOUSE, Strain/Sex: B6C3F1/FEMALE, Target Tissue: Type of Lesion: LUNG: ADENOMA, Dose [Carcinogen]: 10 MG/KG BW DEN TWICE ON DAYS 1 AND 21, 120 PPM MNU IN DRINKING WATER DURING WKS 4-9, 20 MG/KG BW DMH 2/WK DURING WKS 4-, Dose [Carcinogen]: 10 MG/KG BW DEN TWICE ON DAYS 1 AND 21, 120 PPM MNU IN DRINKING WATER DURING WKS 4-9, 20 MG/KG BW DMH 2/WK DURING WKS 4-): 6/16 (38%), 3/16 (19%), 50%, not significant
outcome (Carcinogen: DIETHYLNITROSAMINE: 55-18-5, N-METHYL-N-NITROSOUREA, 684-93-5, 1,2-DIMETHYLHYDRAZINE, 540-73-8, Carcinogen: DIETHYLNITROSAMINE: 55-18-5, N-METHYL-N-NITROSOUREA, 684-93-5, 1,2-DIMETHYLHYDRAZINE, 540-73-8, 25 PPM IN DIET FOR 21 WK BEGINNING 2 WK POST CARCINOGEN TREATMENT (STUDY DURATION: 213 D), Route [Inhibitor]: ORAL, Species: MOUSE, Strain/Sex: B6C3F1/FEMALE, Target Tissue: Type of Lesion: LUNG: CARCINOMA, Dose [Carcinogen]: 10 MG/KG BW DEN TWICE ON DAYS 1 AND 21, 120 PPM MNU IN DRINKING WATER DURING WKS 4-9, 20 MG/KG BW DMH 2/WK DURING WKS 4-, Dose [Carcinogen]: 10 MG/KG BW DEN TWICE ON DAYS 1 AND 21, 120 PPM MNU IN DRINKING WATER DURING WKS 4-9, 20 MG/KG BW DMH 2/WK DURING WKS 4-): 0/16 (0%), 0/16 (0%), 0%, not significant
tumour outcome (control, treated, inhibition, significance) (Carcinogen: DIETHYLNITROSAMINE: 55-18-5, N-METHYL-N-NITROSOUREA, 684-93-5, 1,2-DIMETHYLHYDRAZINE, 540-73-8, Carcinogen: DIETHYLNITROSAMINE: 55-18-5, N-METHYL-N-NITROSOUREA, 684-93-5, 1,2-DIMETHYLHYDRAZINE, 540-73-8, 25 PPM IN DIET FOR 21 WK BEGINNING 2 WK POST CARCINOGEN TREATMENT (STUDY DURATION: 213 D), Route [Inhibitor]: ORAL, Species: MOUSE, Strain/Sex: B6C3F1/MALE, Target Tissue: Type of Lesion: LUNG: ADENOMA, Dose [Carcinogen]: 10 MG/KG BW DEN TWICE ON DAYS 1 AND 21, 120 PPM MNU IN DRINKING WATER DURING WKS 4-9, 20 MG/KG BW DMH 2/WK DURING WKS 4-, Dose [Carcinogen]: 10 MG/KG BW DEN TWICE ON DAYS 1 AND 21, 120 PPM MNU IN DRINKING WATER DURING WKS 4-9, 20 MG/KG BW DMH 2/WK DURING WKS 4-): 11/16 (69%), 11/15 (69%), 0%, not significant
tumour outcome (control, treated, inhibition, significance) (Carcinogen: DIETHYLNITROSAMINE: 55-18-5, N-METHYL-N-NITROSOUREA, 684-93-5, 1,2-DIMETHYLHYDRAZINE, 540-73-8, Carcinogen: DIETHYLNITROSAMINE: 55-18-5, N-METHYL-N-NITROSOUREA, 684-93-5, 1,2-DIMETHYLHYDRAZINE, 540-73-8, 25 PPM IN DIET FOR 21 WK BEGINNING 2 WK POST CARCINOGEN TREATMENT (STUDY DURATION: 213 D), Route [Inhibitor]: ORAL, Species: MOUSE, Strain/Sex: B6C3F1/MALE, Target Tissue: Type of Lesion: LUNG: CARCINOMA, Dose [Carcinogen]: 10 MG/KG BW DEN TWICE ON DAYS 1 AND 21, 120 PPM MNU IN DRINKING WATER DURING WKS 4-9, 20 MG/KG BW DMH 2/WK DURING WKS 4-, Dose [Carcinogen]: 10 MG/KG BW DEN TWICE ON DAYS 1 AND 21, 120 PPM MNU IN DRINKING WATER DURING WKS 4-9, 20 MG/KG BW DMH 2/WK DURING WKS 4-): 1/16 (6%), 2/16 (12%), -98%, not significant
tumour outcome (control, treated, inhibition, significance) (Carcinogen: DIETHYLNITROSAMINE: 55-18-5, N-METHYL-N-NITROSOUREA, 684-93-5, 1,2-DIMETHYLHYDRAZINE, 540-73-8, Carcinogen: DIETHYLNITROSAMINE: 55-18-5, N-METHYL-N-NITROSOUREA, 684-93-5, 1,2-DIMETHYLHYDRAZINE, 540-73-8, 50 PPM IN DIET FOR 21 WK BEGINNING 2 WK POST CARCINOGEN TREATMENT (STUDY DURATION: 213 D), Route [Inhibitor]: ORAL, Species: MOUSE, Strain/Sex: B6C3F1/FEMALE, Target Tissue: Type of Lesion: LUNG: ADENOMA, Dose [Carcinogen]: 10 MG/KG BW DEN TWICE ON DAYS 1 AND 21, 120 PPM MNU IN DRINKING WATER DURING WKS 4-9, 20 MG/KG BW DMH 2/WK DURING WKS 4-, Dose [Carcinogen]: 10 MG/KG BW DEN TWICE ON DAYS 1 AND 21, 120 PPM MNU IN DRINKING WATER DURING WKS 4-9, 20 MG/KG BW DMH 2/WK DURING WKS 4-): 6/16 (37%), 8/15 (53%), -42%, not significant
outcome (Carcinogen: DIETHYLNITROSAMINE: 55-18-5, N-METHYL-N-NITROSOUREA, 684-93-5, 1,2-DIMETHYLHYDRAZINE, 540-73-8, Carcinogen: DIETHYLNITROSAMINE: 55-18-5, N-METHYL-N-NITROSOUREA, 684-93-5, 1,2-DIMETHYLHYDRAZINE, 540-73-8, 50 PPM IN DIET FOR 21 WK BEGINNING 2 WK POST CARCINOGEN TREATMENT (STUDY DURATION: 213 D), Route [Inhibitor]: ORAL, Species: MOUSE, Strain/Sex: B6C3F1/FEMALE, Target Tissue: Type of Lesion: LUNG: CARCINOMA, Dose [Carcinogen]: 10 MG/KG BW DEN TWICE ON DAYS 1 AND 21, 120 PPM MNU IN DRINKING WATER DURING WKS 4-9, 20 MG/KG BW DMH 2/WK DURING WKS 4-, Dose [Carcinogen]: 10 MG/KG BW DEN TWICE ON DAYS 1 AND 21, 120 PPM MNU IN DRINKING WATER DURING WKS 4-9, 20 MG/KG BW DMH 2/WK DURING WKS 4-): 0/16 (0%), 0/15 (0%), 0%, not significant
tumour outcome (control, treated, inhibition, significance) (Carcinogen: DIETHYLNITROSAMINE: 55-18-5, N-METHYL-N-NITROSOUREA, 684-93-5, 1,2-DIMETHYLHYDRAZINE, 540-73-8, Carcinogen: DIETHYLNITROSAMINE: 55-18-5, N-METHYL-N-NITROSOUREA, 684-93-5, 1,2-DIMETHYLHYDRAZINE, 540-73-8, 50 PPM IN DIET FOR 21 WK BEGINNING 2 WK POST CARCINOGEN TREATMENT (STUDY DURATION: 213 D), Route [Inhibitor]: ORAL, Species: MOUSE, Strain/Sex: B6C3F1/MALE, Target Tissue: Type of Lesion: LUNG: ADENOMA, Dose [Carcinogen]: 10 MG/KG BW DEN TWICE ON DAYS 1 AND 21, 120 PPM MNU IN DRINKING WATER DURING WKS 4-9, 20 MG/KG BW DMH 2/WK DURING WKS 4-, Dose [Carcinogen]: 10 MG/KG BW DEN TWICE ON DAYS 1 AND 21, 120 PPM MNU IN DRINKING WATER DURING WKS 4-9, 20 MG/KG BW DMH 2/WK DURING WKS 4-): 11/16 (69%), 3/16 (19%), 73%, not significant
tumour outcome (control, treated, inhibition, significance) (Carcinogen: DIETHYLNITROSAMINE: 55-18-5, N-METHYL-N-NITROSOUREA, 684-93-5, 1,2-DIMETHYLHYDRAZINE, 540-73-8, Carcinogen: DIETHYLNITROSAMINE: 55-18-5, N-METHYL-N-NITROSOUREA, 684-93-5, 1,2-DIMETHYLHYDRAZINE, 540-73-8, 50 PPM IN DIET FOR 21 WK BEGINNING 2 WK POST CARCINOGEN TREATMENT (STUDY DURATION: 213 D), Route [Inhibitor]: ORAL, Species: MOUSE, Strain/Sex: B6C3F1/MALE, Target Tissue: Type of Lesion: LUNG: CARCINOMA, Dose [Carcinogen]: 10 MG/KG BW DEN TWICE ON DAYS 1 AND 21, 120 PPM MNU IN DRINKING WATER DURING WKS 4-9, 20 MG/KG BW DMH 2/WK DURING WKS 4-, Dose [Carcinogen]: 10 MG/KG BW DEN TWICE ON DAYS 1 AND 21, 120 PPM MNU IN DRINKING WATER DURING WKS 4-9, 20 MG/KG BW DMH 2/WK DURING WKS 4-): 1/16 (6%), 0/16 (0%), 100%, not significant
tumour outcome (control, treated, inhibition, significance) (Carcinogen: DIETHYLNITROSAMINE, 55-18-5, N-METHYL-N-NITROSOUREA, 684-93-5, 1,2-DIMETHYLHYDRAZINE, 306-37-6, Carcinogen: DIETHYLNITROSAMINE, 55-18-5, N-METHYL-N-NITROSOUREA, 684-93-5, 1,2-DIMETHYLHYDRAZINE, 306-37-6, 25 PPM IN DRINKING WATER FOR 21 WK BEGINNING 2 WK POST CARCINOGEN TREATMENT (STUDY DURATION: 32 WK), Route [Inhibitor]: ORAL, Species: MOUSE, Strain/Sex: B6C3F1/FEMALE, Target Tissue: Type of Lesion: LUNG: ADENOMA, Dose [Carcinogen]: 10 MG/KG BW DEN ON DAYS 11 AND 32 OF AGE, 120 PPM MNU IN DRINKING WATER FROM WKS 4 TO 9, 20 MG/KG BW DMH 2/WK FOR 5 WK, Promoter: NONE USED): 6/16 (38%), 3/16 (19%), 50%, not significant
